Results on 11 molecules are retold here after patent US20240124464A1, “SUBSTITUTED FUSED BICYCLIC COMPOUND AS KINASE INHIBITOR AND USE THEREOF” (IMPACT THERAPEUTICS (SHANGHAI), INC, priority 2020, published 2024).

pIC50: −log10 of the molar value.

Assay [1] deals with T1, NUAK1(h) enzyme (Homo sapiens, UniProt O60285).
T1 construct: purchased Eurofins Discovery
T1 sequence (O60285 1-661): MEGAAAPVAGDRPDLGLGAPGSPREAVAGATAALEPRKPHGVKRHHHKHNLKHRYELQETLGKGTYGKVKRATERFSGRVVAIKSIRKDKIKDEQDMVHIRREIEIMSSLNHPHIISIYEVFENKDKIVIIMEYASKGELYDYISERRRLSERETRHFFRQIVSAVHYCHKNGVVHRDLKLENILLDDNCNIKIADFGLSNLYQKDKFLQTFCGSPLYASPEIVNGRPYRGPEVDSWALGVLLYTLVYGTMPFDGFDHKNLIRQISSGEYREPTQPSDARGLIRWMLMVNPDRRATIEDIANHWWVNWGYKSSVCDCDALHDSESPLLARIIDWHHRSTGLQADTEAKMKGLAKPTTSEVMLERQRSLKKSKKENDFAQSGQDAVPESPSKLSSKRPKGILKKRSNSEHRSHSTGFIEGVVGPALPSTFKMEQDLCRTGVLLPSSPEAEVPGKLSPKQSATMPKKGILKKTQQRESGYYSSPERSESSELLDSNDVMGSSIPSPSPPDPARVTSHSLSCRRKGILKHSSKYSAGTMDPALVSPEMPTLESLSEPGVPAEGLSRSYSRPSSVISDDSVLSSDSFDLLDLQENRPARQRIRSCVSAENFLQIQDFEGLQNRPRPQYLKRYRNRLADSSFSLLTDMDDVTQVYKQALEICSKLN
Briefly: In vitro NUAK1 enzymatic assay (Eurofins Discovery, [γ-33P]-ATP filter assay). The class given is biochemical. The note with it: 45 μM ATP, 40 min, room temperature; read-out: IC50, inhibitory effect on NUAK1 enzyme activity. Here is the method: In Vitro Assay to Determine the Inhibitory Effect of Compounds in the Patent on NUAK1 Enzymatic Activity
The in vitro NUAK1 enzymatic assay was carried out at Eurofins Discovery to evaluate the inhibitory effect of the compounds presented in the invention. The assay protocol is as follow: the compound to be tested was mixed with NUAK1(h) enzyme and 300 μM […] substrate in 8 mM MOPS (pH 7.0) buffer containing 0.2 mM EDTA and incubated at room temperature. A Mg/ATP mixture containing 10 mM magnesium acetate and 45 μM [y-33P]-ATP was added to start the reaction. After incubation for 40 min at room temperature, the reaction was terminated by adding 0.5% phosphoric acid. Then, 10 μL of the reaction mix was spotted onto a P30 filter paper followed with four times of wash with 0.425% phosphoric acid solution (4 min each time), and one time wash with methanol. The filter paper was air-dried and counted in a liquid scintillation counter. The values obtained were plotted against the drug concentration and the IC50 was calculated.
Table 1 summarizes the inhibitory effect (IC50) of compounds tested on the NUAK1 enzyme activity in the present invention. ++++ indicates IC50≤10 nM; […]; ++ indicates 100 nM<IC50≤1 μM; + indicates IC50>1 μM.

Assay [2] has as its target T2, NUAK2(h) enzyme (Homo sapiens, UniProt Q9H093).
T2 construct: purchased Eurofins Discovery
T2 sequence (Q9H093 1-628): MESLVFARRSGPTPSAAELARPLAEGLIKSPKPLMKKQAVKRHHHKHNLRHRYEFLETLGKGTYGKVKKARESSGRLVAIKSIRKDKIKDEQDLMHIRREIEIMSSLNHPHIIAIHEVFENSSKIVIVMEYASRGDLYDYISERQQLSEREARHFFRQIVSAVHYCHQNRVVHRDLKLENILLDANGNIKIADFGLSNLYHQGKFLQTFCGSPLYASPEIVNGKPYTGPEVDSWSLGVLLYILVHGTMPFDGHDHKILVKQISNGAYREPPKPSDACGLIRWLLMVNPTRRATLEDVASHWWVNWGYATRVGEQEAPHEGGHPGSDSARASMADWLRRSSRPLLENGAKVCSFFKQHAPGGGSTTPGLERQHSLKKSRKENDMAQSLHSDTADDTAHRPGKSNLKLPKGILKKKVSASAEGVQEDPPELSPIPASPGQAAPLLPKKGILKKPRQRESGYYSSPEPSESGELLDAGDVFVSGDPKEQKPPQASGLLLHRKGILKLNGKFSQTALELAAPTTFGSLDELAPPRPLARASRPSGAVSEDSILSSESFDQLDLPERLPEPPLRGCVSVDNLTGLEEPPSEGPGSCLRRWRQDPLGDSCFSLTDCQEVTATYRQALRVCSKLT
Briefly: In vitro NUAK2 enzymatic assay (Eurofins Discovery, [γ-33P]-ATP filter assay). The assay is classed as biochemical. The settings on record: 45 μM ATP, 40 min, room temperature; read-out: IC50, inhibitory effect on NUAK2 enzyme activity. Here is the method:
In Vitro Assay to Determine the Inhibitory Effect of Compounds in the Patent on NUAK2 Enzymatic Activity
The in vitro NUAK2 enzymatic assay was carried out at Eurofins Discovery to evaluate the inhibitory effect of the compounds presented in the invention. The assay protocol is as follow: the compound to be tested was mixed with NUAK2(h) enzyme and 300 […] substrate in 8 mM MOPS (pH 7.0) buffer containing 0.2 mM EDTA. A Mg/ATP mixture containing 10 mM magnesium acetate and 45 μM [γ-33P]-ATP was added to start the reaction. After incubation for 40 min at room temperature, the reaction was terminated by adding 0.5% phosphoric acid. Then 10 μL of the reaction mix was spotted onto a P30 filter paper. The filter paper was washed four times with 0.425% phosphoric acid with 4 min for each wash, and one time with methanol. The filter paper was air-dried and counted in a liquid scintillation counter. The values obtained were plotted against the drug concentration and the IC50 was calculated.
Table 1 summarizes the inhibitory effect (IC50) of compounds on the NUAK2 enzyme activity in the present invention. ++++ indicates IC50≤10 nM; +++ indicates 10 nM<IC50≤100 nM; ++ indicates 100 nM<IC50≤1 μM; + indicates IC50>1 μM.

Assay [3] concerns HEC-1-B human endometrial cancer cells. Briefly: CTG (CellTiter-Glo) proliferation assay on HEC-1-B cells, 7 days. The class given is cell-based. The note with it: 168 h, 7 days incubation, read-out: IC50, inhibitory effect on proliferation of Hec-1B cells. The method, then: CTG Assay to Evaluate the Inhibitory Effect of Compounds on HEC-1-B Human Endometrial Cancer Cells
Human endometrial cancer HEC-1-B cells were resuscitated and cultured in complete medium (MEM medium+10% FBS). When reaching about 80% confluence, the cells were gently blown away from the bottom of the culture dish with a 1 mL pipette. The cells were collected and centrifuged at 500 rpm for 3 min. The supernatant was discarded and the cell pellet was resuspend in fresh medium. Cells were counted to determine cell density and seeded into 96-well plates at a density of 1000 cells per well and incubated overnight at 37° C. in a 5% CO2 incubator. In the next day, the compounds in storage solution was serially diluted with DMSO at a ratio of 1:3 for a total of 9 concentrations. Two μL of each serially diluted solution was added to 98 μL of cell culture medium ([…]), while DMSO was mixed with culture medium similarly to be served as control. The compound dilutions were shaken and mixed. The cell culture plate with cells was removed from CO2 incubator, the culture medium was aspirated from each well, 135 μL of fresh medium was added to each well followed with 15 μL of the compound dilutions. The plates were incubated at 37° C. for 7 days in a 5% CO2 incubator. One hundred μL CellTiter-Glo reagent was added to each well and the plate was vortexed for 2 min and incubated for 10 min to fully lyse the cells. The chemiluminescence values were read using a plate reader.
The chemiluminescence values were plotted against compound concentrations to calculate the inhibitory activity of each compound on cell proliferation Cell inhibition rate (%)=(chemiluminescence value tested compound−chemiluminescence value DMSO control)/(chemiluminescence value medium control−chemiluminescence valueDMSO control)×100%.
A nonlinear S-curve regression was fitted using XLFit software to fit the data to derive a dose-effect curve, from which the IC50 values were calculated. The curve equation was Y=Bottom+(Top-Bottom)/(1+10{acute over ( )}((LogIC50-X)×slope)), where Y is the cellular inhibition rate, X is the compound concentration, Bottom refers to the lowest inhibition rate, and Top refers to the highest inhibition rate.
Table 3 summarizes the inhibitory effects (IC50) of the compounds on the proliferation of Hec-1B cells, Where ++++ indicates 100 nM<IC50≤500 nM; +++ indicates 500 nM<IC50≤1 μM; ++ indicates 1 μM<IC50≤10 μM; + indicates IC50>10 μM.
For orientation: In ATP-based viability assays light output follows the ATP content of the culture.

Consider `COc1cc(N2CCN(C)CC2)ccc1Nc1ncc2cc(C#N)c(=O)n(C3CCCC3)c2n1` [Example 26, 8-cyclopentyl-2-((2-methoxy-4-(4-methylpiperazin-1-yl)phenyl)amino)-7-oxo-7,8-dihydropyrido[2,3-d]pyrimidine-6-carbonitrile], for which the pIC50 was 7.00 to 8.00 in assay [1], 7.00 to 8.00 in assay [2] and 6.00 to 6.30 in assay [3].

On to `COc1cc(N2CCN(C)CC2)ccc1Nc1ncc2cnc(=O)n(C3CCCCC3)c2n1` [Example 6, 1-cyclohexyl-7-((2-methoxy-4-(4-methylpiperazin-1-yl)phenyl)amino)pyrimido[4,5-d]pyrimidin-2(1H)-one], for which the pIC50 is 6.00 to 7.00 in assay [1], 7.00 to 8.00 in assay [2] and 6.00 to 6.30 in assay [3].

Take `COc1cc(N2CCN(C)CC2)ccc1Nc1ncc2c(n1)N(C1CCCCC1)C(=O)CC2` [Example 29, 8-cyclohexyl-2-((2-methoxy-4-(4-methylpiperazin-1-yl)phenyl)amino)-5,8-dihydropyrido[2,3-d]pyrimidin-7(6H)-one]: the results for the pIC50 in assay [1], in assay [2] and in assay [3] were 7.00 to 8.00, 7.00 to 8.00 and 6.00 to 6.30, respectively.

Regarding `COc1cc(N2CCN(C)CC2)ccc1Nc1ncc2ccc(=O)n(C3CCCC3)c2n1` [Example 19, 8-cyclopentyl-2-((2-methoxy-4-(4-methylpiperazin-1-yl)phenyl)amino)pyrido[2,3-d]pyrimidin-7(8H)-one], the pIC50 in assay [1] was 7.00 to 8.00; in assay [2], at least 8.00; in assay [3], 6.00 to 6.30.

With `COc1cc(N2CCN(C)CC2)ccc1Nc1nnc2ccc(=O)n(C3CCCC3)c2n1` [Example 24, 5-cyclopentyl-3-((2-methoxy-4-(4-methylpiperazin-1-yl)phenyl)amino)pyrido[2,3-e][1,2,4]triazin-6(5H)-one], the figures for the pIC50 in assay [1], in assay [2] and in assay [3] were 6.00 to 7.00, 7.00 to 8.00 and 6.00 to 6.30, respectively.

`COc1cc(N2CCN(C)CC2)ccc1Nc1ncc2ccc(=O)n(C3CC3)c2n1` [Example 23, 8-cyclopropyl-2-((2-methoxy-4-(4-methylpiperazin-1-yl)phenyl)amino)pyrido[2,3-d]pyrimidin-7(8H)-one]: the pIC50 in assay [1] was 7.00 to 8.00; in assay [2], 6.00 to 7.00; in assay [3] it was 6.30 to 7.00.

Take `COc1cc(N2CCN(C)CC2)ccc1Nc1ncc2cc(C)c(=O)n(C3CC3)c2n1` [Example 21]: the pIC50 in assay [1] is 7.00 to 8.00; in assay [2], 6.00 to 7.00; in assay [3], 6.30 to 7.00.

For the molecule `COc1cc(N2CCN(C)CC2)ccc1Nc1ncc2cnc(=O)n(C3CCCC3)c2n1` [Example 5, 1-cyclopentyl-7-((2-methoxy-4-(4-methylpiperazin-1-yl)phenyl)amino)pyrimido[4,5-d]pyrimidin-2(1H)-one], the pIC50 is 6.00 to 7.00 in assay [1], at least 8.00 in assay [2] and 6.00 to 6.30 in assay [3].

`COc1cc(N2CCN(C)CC2)ccc1Nc1ncc2ccc(=O)n(C3CCCCC3)c2n1` [Example 22, 8-cyclohexyl-2-((2-methoxy-4-(4-methylpiperazin-1-yl)phenyl)amino)pyrido[2,3-d]pyrimidin-7(8H)-one]: the results for the pIC50 in assay [1], in assay [2] and in assay [3] were at least 8.00, at least 8.00 and below 5.00, respectively.

For `COc1cc(N2CCN(C)CC2)ccc1Nc1ncc2cc(C)c(=O)n(C3CCCC3)c2n1` [Example 20, 8-cyclopentyl-2-((2-methoxy-4-(4-methylpiperazin-1-yl)phenyl)amino)-6-methylpyrido[2,3-d]pyrimidin-7(8H)-one], the pIC50 in assay [1] is 7.00 to 8.00; in assay [2], 7.00 to 8.00; in assay [3] it was below 5.00.

With `Cc1cc(N2CCN(C)CC2)ccc1Nc1ncc2cnc(=O)n(C3CCCC3)c2n1` [Example 10, 1-cyclopentyl-7-((2-methyl-4-(4-methylpiperazin-1-yl)phenyl)amino)pyrimido[4,5-d]pyrimidin-2(1H)-one], the pIC50 in assay [1] was 6.00 to 7.00; in assay [2], 7.00 to 8.00; in assay [3] it was 6.00 to 6.30.
